Assay results: patent publication US8063108B2, “Method for modulating microbial quorum sensing” (priority 2004, dated 2011)

How the values were obtained:
Type in all cases: cell-based
[1] = target: T1, TraR (Agrobacterium tumefaciens, UniProt P33905); assay: Agrobacterium tumefaciens KYC55 β-Galactosidase induction plate assay; conditions: 1 μl of 0.1 mg/ml spotted
T1 construct: expressed in transfected cells; host or cells: Agrobacterium tumefaciens KYC55
Experimental: (§1) Additional screens were performed as described above, except fluorescence was measured using the Wallac Victor2 plate reader with an excitation wavelength of 485 nm and emission detection at 515 nm. E. coli reporter induction assays were performed as described for P. putida. Chromobacterium violaceum CV026 and Agrobacterium tumefaciens KYC55 induction assays were performed by applying compounds to a lawn of bacteria on agar plates. C. violaceum CV026 inhibition assays were performed by applying compounds to a lawn of bacteria on agar plates containing synthetic N-3-oxohexanoyl-L-homoserine lactone.
Agrobacterium tumefaciens KYC55 is a mutant strain that is unable to produce AHLs. Exogenous AHLs must be added to induce the LuxR-type transcriptional regulator which is designated TraR in this strain. This strain contains a plasmid that encodes β-Galactosidase under the transcriptional control of TraR. Activation of TraR is indicated by the production of β-Galactosidase. Cultures were grown overnight at 28° C. in AMA broth. Induction assays were performed by applying compounds to a lawn of bacteria on AMA agar plates containing […] of X-Gal per ml. […] Activation of quorum sensing was qualitatively measured by observing the production the blue pigment that results from β-Galactosidase cleavage of the X-gal substrate in areas where compounds were applied. […]

[2] = target: T2, CviR (Chromobacterium violaceum, UniProt D3W065); assay: Chromobacterium violaceum CV026 violacein plate assay; conditions: 1 μl of 0.1 mg/ml spotted
T2 construct: endogenous in cells; host or cells: Chromobacterium violaceum CV026
T2 sequence (D3W065 1-265): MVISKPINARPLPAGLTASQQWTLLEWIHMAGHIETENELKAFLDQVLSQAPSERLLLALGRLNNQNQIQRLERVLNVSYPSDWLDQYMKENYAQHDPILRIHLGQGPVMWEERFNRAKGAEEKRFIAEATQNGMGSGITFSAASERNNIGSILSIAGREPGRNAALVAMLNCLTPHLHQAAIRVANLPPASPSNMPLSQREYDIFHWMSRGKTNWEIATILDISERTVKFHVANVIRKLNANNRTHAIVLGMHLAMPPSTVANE
Experimental: as §1
Chromobacterium violaceum CV026 is a mutant that is unable to produce AHLs. Exogenous AHLs must be added to induce the LuxR-type transcriptional regulator which is designated CviR in this strain. Activation of CviR is indicated by the production of violacein. Cultures were grown overnight at 28° C. in LB media. […] Inhibition of quorum sensing was qualitatively measured by observing the lack of production of violacein in areas where compounds were applied. […] Activation of quorum sensing was qualitatively measured by observing the production of violacein in areas where compounds were applied. […]

[3] = target: T3, LasR transcriptional activator (Pseudomonas aeruginosa, UniProt P25084); assay: P. putida F117 pKRC12 lasB-GFP reporter assay (secondary screens); conditions: compounds 10 μM, relative fluorescence (fluorescence divided by absorbance at 600 nm) as percent of AHL induced control; for % Activity of AHL Standard, 3 oxo C10HSL: 3oxoC10HSL 100 nM; for % Activity of AHL Standard, 3 oxo C12HSL: 3oxoC12HSL 50 nM
T3 construct: expressed in transfected cells; host or cells: Pseudomonas putida F117 carrying plasmid pKRC12 (lasR, PlasB-gfp)
T3 sequence (P25084 whole entry): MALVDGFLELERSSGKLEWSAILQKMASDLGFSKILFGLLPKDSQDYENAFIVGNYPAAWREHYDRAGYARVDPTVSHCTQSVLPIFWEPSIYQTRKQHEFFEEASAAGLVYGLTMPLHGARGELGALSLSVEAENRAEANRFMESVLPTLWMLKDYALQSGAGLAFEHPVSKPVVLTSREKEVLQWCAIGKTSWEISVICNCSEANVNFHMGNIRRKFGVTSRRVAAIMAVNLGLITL
Experimental: Additional screens were performed similar to screen described in the initial screen, except assays were performed in 96-well microtiter plates at a total volume of 100 μl. The reporter strain P. putida F117 pKRC12 was grown overnight at 28° C. in LB media, diluted with LB media to achieve an optical density of 0.05 at 600 nm (OD600), and 96 μl of cells were aliquoted to 96-well plates. Compounds were added at a final concentration of 100 nm or as otherwise indicated in each experiment and the bacterial cells were incubated with the compounds for approximately 30 minutes prior to the addition of 3oxoC10HSL or 3oxoC12HSL at a final concentration of 100 nM and 50 nM respectively or as indicated for each experiment. Fluorescence was measured at regular intervals after 3 hours using the Wallac Victor2 plate reader with an excitation wavelength of 485 nm and emission detection at 515 nm. Representative results are presented in FIGS. 6A and B and present the percentage of GFP expression activity as a function of expression of the AHL (3oxoC10 HSL) control. The numbers on the X axis refer to the Chembridge library reference number. Effects on growth of the antagonists were determined by measuring the optical density at 600 nm of growing bacterial cultures P. putida F 117 pKRC 12. […] (Reference for P. putida F117 pKRC12: Steidle, A., K. Sigl, R. Schuhegger, A. Ihring, M. Schmid, S. Gantner, M. Stoffels, K. Riedel, M. Givskov, A. Hartmann, C. Langebartels, and L. Eberl. 2001. Visualization of N-acylhomoserine lactone-mediated cell-cell communication between bacteria colonizing the tomato rhizosphere. Appl Environ Microbiol 67:5761-70). […]
This example presents representative results of experiments designed to test the activity of putative antagonists when challenged with different concentrations of synthetic AHLs, particularly 3oxoC12HSL. Assays were conducted with P. putida F117 pKRC12 reporter strain as described in the methods for secondary screens.
Following the initial screens to identify strong antagonists of the LasR transcriptional activator, further investigation of additional compounds in the Chembridge library was carried out. In particular, the experiments described in Example 1 identified three compounds that shared a thiocarbamate structure, as also shown in FIG. 16. To further investigate structure-activity relationships, the inventors examined the antagonist activity of 19 additional compounds with related thiocarbamate structures, using the procedures described in Example 1. The results are presented in Table 4, expressed as the percent activity of the AHL induced control. The % activity represents the relative fluorescence, which is the fluorescence observed in each assay divided by bacterial cell density as measured by absorbance at 600 nm. Compounds were assayed at a concentration of 10 μM. Assays were conducted with P. putida F117 pKRC12 reporter strain as described in the methods for secondary screens. The 3oxoC10HSL and 3oxoC12HSL were assayed at concentrations of 100 nM and 50 nM, respectively.

T1 sequence (P33905 whole entry): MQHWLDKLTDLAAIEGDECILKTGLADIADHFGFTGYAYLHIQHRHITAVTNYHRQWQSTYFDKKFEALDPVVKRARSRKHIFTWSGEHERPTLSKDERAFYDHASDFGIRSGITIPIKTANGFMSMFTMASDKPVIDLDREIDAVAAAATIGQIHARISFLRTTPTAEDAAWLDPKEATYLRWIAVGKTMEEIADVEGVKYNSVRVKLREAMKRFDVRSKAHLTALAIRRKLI

SMILES | Induction of β-Galactosidase (blue zone), control [1] | Activation of quorum sensing (violacein production), control [2] | % Activity of AHL Standard, 3 oxo C10HSL [3] [%] | % Activity of AHL Standard, 3 oxo C12HSL [3] [%]
CCCC(=O)CC(=O)N[C@H]1CCOC1=O [Compound 3oxoC6HSL, N-(3-oxohexanoyl)-L-homoserine lactone] | activated gene expression | activated gene expression |  | 
NC(=O)SCC(=O)Nc1ccc(Br)cc1 [Compound 15] |  |  | 39.00 | 70.10
COc1ccc(NC(=O)CSC(N)=O)c(OC)c1 [Compound 16] |  |  | 35.00 | 70.90
NC(=O)SCC(=O)Nc1cccc(I)c1 [Compound 17] |  |  | 67.20 | 81.20
Cc1ccc(NC(=O)CSC(N)=O)c(C)c1 [Compound 18] |  |  | 40.00 | 82.30
NC(=O)SCC(=O)Nc1ccccc1O [Compound 19] |  |  | 38.60 | 82.90
NC(=O)SCC(=O)Nc1ccc(Cl)c(Cl)c1 [Compound 20] |  |  | 40.50 | 87.70
NC(=O)SCC(=O)Nc1cccc(Cl)c1 [Compound 21] |  |  | 43.30 | 88.50
COC(=O)c1ccc(NC(=O)CSC(N)=O)cc1 [Compound 22] |  |  | 57.60 | 101.0
